Tested on: SF3B3-on switch
Test: Candidate minigene (SF3B3, BENC1, C12orf4, PDXDC2) switch-on luciferase assay in HEK293 cells
Type: cell-based, Human
Experimental: Cell culture, transfection, and LMI070/RG7800 treatment. Human embryonic kidney (HEK293) cells (obtained from CHOP Research Vector Core stock) were maintained in DMEM media containing 10% Fetal Bovine Serum (FBS), 1% L-Glutamine and 1% penicillin/streptomycin at 37° C. with 5% CO2. Cells were cultured in 24 well plates and transfected at 80-90% confluence using Lipofectamine 2000 transfection reagent, according to the manufacturer’s protocol. For all experiments, 4 hours after plasmid transfection, cells were treated with LMI070 (MedChemExpress, HY-19620, suspended in DMSO) or RG7800 (MedChemExpress, HY-101792A, suspended in H2O) at the indicated concentrations. Cells were tested for mycoplasma by Research Vector Core. None of the cells used in the study were listed in ICLAC database of commonly misidentified cell lines.
In vitro luciferase assays. HEK293 cells were cultured in DMEM (10% FBS (v/v), 1% Pen/ Strep (v/v), and 1% L-glutamine (v/v) in a 24-well plate. At 70%-80% confluence, cells were co-transfected with the Xon.Firefly luciferase cassettes (0.3 µg/well) and a SV40p-Renilla luciferase cassette as transfection control (0.02 µg/well). Four hours after transfections cells were treated either with LMI070 or RG7800 at indicated concentrations. At 24 h after transfection, cells were rinsed with ice-cold PBS and Renilla and Firefly luciferase activities were assessed using the Dual-Luciferase Reporter Assay System (Promega) according to the manufacturer’s instructions. Luminescent readouts were obtained with a Monolight 3010 luminometer (Pharmigen). Relative light units (RLUs) were calculated as the quotient of […] RLUs and results expressed relative to mock treated control cells.
Next, a series of switch-on cassettes were developed from the top 4 LMI070-responsive exons found in the RNA-Seq dataset. […] HEK293 cells were transfected with the candidate cassettes, treated with LMI070, and luciferase activity or eGFP expression determined 24 h later. […]

Q: Which results are given for CC1(C)CC(Oc2ccc(-c3ccc(-c4cn[nH]c4)cc3O)nn2)CC(C)(C)N1 [LMI070, 5-(1H-Pyrazol-4-yl)-2-(6-((2,2,6,6-tetramethylpiperidin-4-yl)oxy)pyridazin-3-yl)phenol]?
A: luciferase expression of each candidate cassette in response to LMI070 (SF3B3, BENC1, C12orf4, PDXDC2 cassettes, 24 h): Increased luciferase expression; luciferase induction of the SF3B3-on switch (in response to LMI070, relative to DMSO, 24 h): more than 100 fold; fold-change in luciferase activity in response to LMI070, original intron (original SF3B3-on construct compared with alternate intron cassettes): > 200 fold
